From patent US20130217721A1, “COMPOSITIONS AND METHODS FOR DETECTION AND TREATMENT OF B-RAF INHIBITOR-RESISTANT MELANOMAS” (The Regents of the University of California, priority 2010, published 2013)
Where “and” joins values, the source holds several entries; their conditions need not be identical. Identical values can stand only once. Like-named read-outs stand apart in the source and are kept apart here.

Legend:
[1] = system: M229 R sub-lines (M229 R5); test: Cell survival / proliferation assay (72 h); type: cell-based, human; details: M229 R sub-lines
Procedure: (§1) Cells were maintained in Dulbecco's modified Eagle medium (DMEM) with 10 or 20% fetal bovine serum and glutamine. shRNAs were sub-cloned into the lentiviral vector pLL3.7 and infections carried out with protamine sulphate. Stocks of PLX4032 (Plexxikon) and AZD6244 (commercially available) were made in DMSO. Cells were quantified using CellTiter-GLO Luminescence (Promega).
(§2) Cell proliferation experiments were performed in a 96-well format (five replicates), and baseline quantification performed at 24 h after cell seeding along with initiation of drug treatments (72 h). Stocks and dilutions of PLX4032 (Plexxikon), AZD6244 (Selleck Chemicals) and U0126 (Promega) were made in DMSO. siRNA pool (Dharmacon) transfections were carried out in 384-well format. TransIT transfection reagent (Mirus) was added to each well and incubated at 37° C. for 20 min. Subsequently, cells were reverse transfected, and the mixture was incubated for 51-61 h at 37° C. Cells were quantified using CellTiter 96 Aqueous One Solution (Promega) or CellTiter-GLO Luminescence (Promega) following the manufacturer's recommendations.

[2] = system: M238 R sub-lines (M238 R1); test: Cell survival / proliferation assay (72 h); type: cell-based, human; details: M238 R sub-lines
Procedure: as §1, §2

[3] = system: Pt48 R short-term culture; test: Cell survival / proliferation assay (72 h); type: cell-based, human
Procedure: as §1, §2

[4] = system: Pt55 R short-term culture; test: Cell survival / proliferation assay (72 h); type: cell-based, human
Procedure: as §1, §2

melanoma = test: PLX4032 clinical trial patients: best overall response and progression free survival (Table 2); type: in vivo, human; details: individual PLX4032 clinical trial patient
BRAF(V600E/R509H) = BRAF(V600E/R509H) (Homo sapiens, UniProt P15056, R509H/V600E); test: ERK signaling in 293H cells expressing BRAF(V600E/R509H); type: cell-based; details: 2 μM PLX4032 for 1 hour
Chain of BRAF(V600E/R509H) (P15056 whole entry R509H/V600E, the tested form may be a part, canonical isoform): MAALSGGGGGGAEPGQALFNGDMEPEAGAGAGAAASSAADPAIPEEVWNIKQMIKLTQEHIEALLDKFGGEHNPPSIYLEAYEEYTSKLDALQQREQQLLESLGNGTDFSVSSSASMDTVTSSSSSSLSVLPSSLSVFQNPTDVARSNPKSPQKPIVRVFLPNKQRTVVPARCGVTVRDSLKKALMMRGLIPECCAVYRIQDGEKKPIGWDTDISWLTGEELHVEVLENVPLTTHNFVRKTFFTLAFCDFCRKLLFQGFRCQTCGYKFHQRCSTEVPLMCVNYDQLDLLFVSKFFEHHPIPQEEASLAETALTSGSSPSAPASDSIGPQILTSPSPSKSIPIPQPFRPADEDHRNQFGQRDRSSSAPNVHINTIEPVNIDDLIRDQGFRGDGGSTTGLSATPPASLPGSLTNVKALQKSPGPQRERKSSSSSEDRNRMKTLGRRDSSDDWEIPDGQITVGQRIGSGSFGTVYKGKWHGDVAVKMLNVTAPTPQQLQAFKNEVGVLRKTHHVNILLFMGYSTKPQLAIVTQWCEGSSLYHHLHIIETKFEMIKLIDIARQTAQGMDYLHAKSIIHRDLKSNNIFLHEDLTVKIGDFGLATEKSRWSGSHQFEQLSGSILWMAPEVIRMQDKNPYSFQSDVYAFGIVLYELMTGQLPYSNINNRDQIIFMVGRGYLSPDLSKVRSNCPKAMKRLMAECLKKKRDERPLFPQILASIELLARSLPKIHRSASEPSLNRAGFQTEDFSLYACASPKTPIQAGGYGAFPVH
Source text: (§3) FIGS. 6A-6E. […] FIG. 6A. PCR analysis of BRAF in cDNA from parental (P) and C3 cells. Primers were designed at the N-terminus and C-terminus of BRAF. […] Abbreviations: CR1: Conserved Region 1, CR2: Conserved Region 2, CR3: Conserved Region 3, RBD: RAS-binding domain, CRD: Cystine-Rich Domain, AS: Activation Segment, KD: Kinase Domain. FIG. 6B. Full length wild-type BRAF and the 1.7 kb/61 kd splice variant of BRAF(V600E) were cloned into a pcDNA3.1 vector with a FLAG tag at the C-terminus and expressed in 293H cells. The effect of PLX4032 (2 μM for 1 hour) on ERK signaling in the presence of p61 BRAF(V600E) was analyzed by western blot for pMEK and pERK. FIG. 6C. To compare levels of dimerization, 293H cells co-expressing FLAG tagged and V5-tagged p61 BRAF(V600E), full length BRAF(V600E) and the corresponding dimerization-deficient mutants p61 BRAF(V600E/R509H) and BRAF(V600E/R509H) were lysed followed by immunoprecipitation with FLAG antibody. Western blots with V5 or FLAG antibodies were performed as indicated. FIG. 6D. Comparison of MEK/ERK activation and sensitivity of ERK signaling to PLX4032 (2 μM for 1 hour) in 293H cells expressing either Flag-tagged BRAF(V600E) or the dimerization mutant Flag-tagged BRAF(V600E/R509H). FIG. 6E. […]

p61 BRAF(V600E/R509H) = p61 BRAF(V600E/R509H) (Homo sapiens, UniProt P15056, DEL169-380/R509H/V600E); test: ERK signaling in 293H cells expressing p61 BRAF(V600E/R509H); type: cell-based; details: 2 μM PLX4032 for 1 hour
Chain of p61 BRAF(V600E/R509H) (P15056 with tags, fused parts or gaps DEL169-380/R509H/V600E): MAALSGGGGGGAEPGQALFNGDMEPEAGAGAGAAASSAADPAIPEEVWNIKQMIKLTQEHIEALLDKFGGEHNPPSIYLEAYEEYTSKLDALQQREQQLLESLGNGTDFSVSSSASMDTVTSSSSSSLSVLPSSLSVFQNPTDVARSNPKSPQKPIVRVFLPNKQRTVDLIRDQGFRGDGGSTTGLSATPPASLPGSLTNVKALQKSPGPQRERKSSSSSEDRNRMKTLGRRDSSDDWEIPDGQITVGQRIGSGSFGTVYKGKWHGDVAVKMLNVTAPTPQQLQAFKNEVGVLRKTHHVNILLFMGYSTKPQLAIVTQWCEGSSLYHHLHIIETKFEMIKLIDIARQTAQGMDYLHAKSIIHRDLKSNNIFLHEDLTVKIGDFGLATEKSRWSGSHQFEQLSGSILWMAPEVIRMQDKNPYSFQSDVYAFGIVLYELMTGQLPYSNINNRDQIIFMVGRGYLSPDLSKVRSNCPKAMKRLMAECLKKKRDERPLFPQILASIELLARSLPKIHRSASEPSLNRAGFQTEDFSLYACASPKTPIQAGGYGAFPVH
Source text: as §3

[5] = system: M395 P over-expressing V600EB-RAF; test: Cell survival assay (72 h) with V600EB-RAF over-expression; type: cell-based, human
Procedure: FIGS. 9A-9C. ^V600EB-RAF levels modulate melanoma sensitivity to vemurafenib. […] Dashed line, 50% inhibition. […] FIG. 9C, Increasing (in M395 P) or decreasing (in M395 R) BRAF^V600E levels decreased or increased pERK sensitivity to PLX4032 (0, 0.1, 1, 10 μM) treatments for 1 h, respectively.
Cell culture, infections and drug treatments. Cells were maintained in DMEM with 10 or 20% fetal bovine serum and glutamine. shRNAs for B-RAF and C-RAF were sub-cloned into the lentiviral vector pLL3.7; pBabe B-RAF (V600E) was purchase (plasmid 17544, Addgene); viral supernatants generated by co-transfection with three packaging plasm ids into HEK293T cells; and infections carried out with protamine sulfate. Stocks and dilutions of PLX4032 (Plexxikon, Berkeley, Calif.) and AZD6244 (commercially available) were made in DMSO. Cells were quantified using CellTiter-GLO Luminescence (Promega) or crystal violet staining followed by NIH Image J quantification.

[6] = system: MAPK signalling (p-MEK1/2 and p-ERK1/2); details: PLX4032 0, 0.01, 0.1, 1 and 10 μM
Procedure: FIG. 1A, Parental and PLX4032-resistant sub-lines were treated with increasing PLX4032 concentration (0, 0.01, 0.1, 1 and 10 μM), and the effects on MAPK signalling were determined by immunoblotting for p-MEK1/2 and p-ERK1/2 levels. Total MEK1/2, ERK1/2 and tubulin levels, loading controls.
Western blots were probed with antibodies against p-MEK1/2 (S217/221), MEK1/2, p-ERK1/2 (T202N204), ERK1/2, PDGFRβ, and EGFR (Cell Signaling Technologies), and N-RAS (Santa Cruz Biotechnology), pan-RAS (Thermo Scientific) and tubulin (Sigma). p-RTK arrays were performed according to the manufacturer's recommendations (Human Phospho-RTK Array Kit, R&D Systems).
Cell lysates for western blotting were made in RIPA (Sigma) with protease inhibitor cocktail (Roche) and phosphatase inhibitor cocktails I and II (Santa Cruz Biotechnology). Western blots were probed with antibodies against p-MEK1/2 (S217/221), total MEK1/2, p-ERK1/2 (T202/Y204), total ERK1/2, PDGFRβ, and EGFR (all from Cell Signaling Technologies), B-RAF and N-RAS (Santa Cruz Biotechnology), pan-RAS (Thermo Scientific) and tubulin (Sigma). p-RTK arrays were performed according to the manufacturer's recommendations (Human Phospho-RTK Array Kit, R&D Systems).

[7] = system: V600EB-RAF-positive melanomas; details: patients with V600EB-RAF-positive melanomas; cited from earlier work
[8] = system: ERK signaling (pMEK, pERK); test: Western blot of ERK signaling (pMEK, pERK) in SKMEL-239 parental cells and resistant clones
Procedure: PLX4032 IC50 curves (at 5 days) for the SKMEL-239 parental cell line and five PLX4032-resistant clones. […] Western blot for components of the ERK and AKT signaling pathways in parental and resistant clones (2 μM PLX4032/24 hours). […] Dose-response of pMEK and pERK downregulation at 1 hour to increasing concentrations of PLX4032 in parental and two representative resistant clones (C3 and C5). […] Graphic representation of the chemiluminescent signal intensities from 5D and determination of IC50s for inhibition of MEK phosphorylation by PLX4032 in the parental and C3 and C5 clones.
Western blotting and receptor tyrosine kinase (RTK) arrays. […] The following antibodies were used: p217/p221-MEK (pMEK), p202/p204-ERK (pERK), MEK, ERK, (Cell Signaling), V5 tag (Invitrogen), BRAF, cyclin Flag tag, β-actin (Sigma). […] Membranes were exposed to chemiluminescent reagents and images captured using the ImageQuant LAS 4000 instrument (GE HealthCare).

[9] = Homo sapiens, not reached up to 10 μM, read-out: GI50, concentration of drug that inhibits growth of cells by 50%

CCCS(=O)(=O)Nc1ccc(F)c(C(=O)c2c[nH]c3ncc(-c4ccc(Cl)cc4)cc23)c1F [PLX4032]
GI50 [1, 9]: > 10 µM
growth at low PLX4032 concentrations ([1]; in contrast to parental cells): paradoxically enhanced growth
GI50 [2, 9]: > 10 µM
growth at low PLX4032 concentrations ([2]; in contrast to parental cells): paradoxically enhanced growth
growth resistance to B-RAF inhibitor [3]: resistance
growth resistance to B-RAF inhibitor [4]: resistance
Best overall response (melanoma): 83% and 14% and 37% and 53% (2×) and 73% and 84% and 32% and 42% and 24% and 57% and 75%
Progression free survival (melanoma): 161 days and 113 days (2×) and 270 days and 106 days and 141 days and 149 days and 137 days and 126 days (2×) and 466 days and 84 days
sensitivity of ERK signaling (BRAF(V600E/R509H)): remained sensitive
ERK signaling (p61 BRAF(V600E/R509H)): inhibited
vemurafenib resistance conferred by V600EB-RAF over-expression [5]: highly saturable by micromolar concentrations
PLX4032-induced decreases in p-MEK1/2 and p-ERK1/2 ([6]; M229 R5): similarly sensitive
PLX4032-induced decreases in p-MEK1/2 and p-ERK1/2 ([6]; M238 R1): similarly sensitive
PLX4032-induced MEK/ERK inhibition ([6]; M249 R4): strong resistance
p-MEK1/2 and p-ERK1/2 levels ([6]; all parental cells (M229, M238, M249)): dose-dependent decreases
anti-tumor response rate [7]: 80%
sensitivity of ERK signaling to the drug ([8]; PLX4032-resistant SKMEL-239 clones): decreased sensitivity
IC50 for pMEK inhibition relative to the parental cell line ([8]; SKMEL-239 C3 clone, 1 hour): more than 100 fold
pMEK IC50 relative to the parental cell line ([8]; SKMEL-239 C5 clone, 1 hour): 4.5 fold
inhibition of ERK signaling ([8]; SKMEL-239 parental, 2 μM PLX4032): effectively inhibits
